One compound from US20250270159A1, “1-(CYCLOBUTANEMETHYLIDENE)-2, 4, 5-TRIMETHOXYBENZENE COMPOUND AND PREPARATION METHOD AND USE THEREOF” (CHENGDU XINRUI TAIKANG TECHNOLOGY CO., LTD., priority 2023, published 2025) can be followed below.

In data set [1] the test system is hemorrhagic stroke induced by caudate nucleus collagenase VII injection in rats. Description: Acute phase of hemorrhagic stroke induced by caudate nucleus collagenase VII injection, short-term neurological deficit score. Type of data set: in vivo. The note with it: for mNSS score / Garcia score: 24 h after hemorrhagic stroke modeling; for mNSS score: scale 0-18, higher worse; for Garcia score: scale 3-18, lower worse. The procedure: after 2 h of hemorrhagic stroke, Zea Longa Score was used to determine whether the modeling was successful, and rats with successful modeling were taken and randomly grouped to be administered.
The rats were randomly divided into a sham operation group (Sham group, given a blank emulsion with a volume equal to that of the high-dose CTMB group), a model group (Vehicle group, given a blank emulsion with a volume equal to that of the high-dose CTMB group), a low-dose CTMB group (CTMB-L group, 10 mg/kg), a high-dose CTMB group (CTMB-H group, 20 mg/kg), and an edaravone dexborneol injection concentrated solution group (EDB group, commercially available, 3 mg/kg). Each group included 10-13 rats, which were administered by intraperitoneal injection. It should be noted that in the experiment, the mode of administration for rats was intraperitoneal injection, and a ratio of the effective dose of CTMB, the active ingredient in the emulsion injection, to the unit mass of the human body was within a range of 0.2 mg-4.0 mg/kg, which referred to the ratio of the effective dose of CTMB, the active ingredient in the emulsion injection, to the unit mass of the human body during intravenous infusion, which was extrapolated from effective dose of the rats. Considering the different bioavailability, peak concentration, and peak time of the drug due to different species and different modes of administration, the ration of the effective dose of the active ingredient CTMB in the emulsion injection to unit mass of human body was finally determined to be 0.2 mg-4.0 mg/kg through conversion.
The rats were fasted and dehydrated for 8 h before the procedure, and anesthesia was induced using 4% isoflurane, and 2% isoflurane was given to maintain anesthesia, and the rats were maintained at a temperature of about 37° C. The rats were fixed at the prone position on the stereotaxic apparatus, the head was prepared for skinning, and a longitudinal incision was made in the median sagittal shape of the head to incise the skin and subcutaneous tissues, exposing the anterior chimney and coronal suture. The stereotaxic apparatus was used to locate the right caudate nucleus of the rat with the fontanel as the origin and the right paracentral opening of the midline of 3.0 mm, marked and then holes were punched with the cranial bone drill, the dura was exposed, and the hemorrhage was stopped adequately. The micro-syringe was pre-mounted on the stereotaxic apparatus, and the needle was vertically injected 5.5 mm along the cranial borehole (i.e., the caudate nucleus site). Collagenase VII (1 μL) at a concentration of 0.5 U/μL was injected slowly and uniformly into the brain for 5 min, the needle was stopped for 8 min, and the syringe was slowly pushed out. The cranial defect was closed using sterile bone wax and the scalp incision was sutured. After disinfecting the treatment with iodophor, the rats were returned to the cage. The sham operation group (Sham group) remained unchanged except for the insertion of a needle for saline injection. After awaking from anesthesia, the rats were fed normally. […]
The neural function of the rats was comprehensively evaluated after 24 h of modeling using the modified mNSS score and Garcia score, and mNSS scoring criteria was shown in Table 3 and Garcia scoring criteria was shown in Table 4. […]

The subject of data set [2] is rat model of lithium-pilocarpine-induced epilepsy. Description: Rat model of lithium-pilocarpine-induced epilepsy (SE), highest seizure grade score. Type of data set: in vivo, Sprague Dawley (SD) rats. The note with it: 50 mg/kg intraperitoneal, 1 h after SE onset; acute phase; Racine 0-6. On the procedure:
(1) Experimental Animals: SPF Adult Male Sprague Dawley (SD) Rats, with a Weight of 200-250 g.
Methylscopolamine bromide, lithium chloride, and pilocarpine were weighed, and experimental drugs were dissolved to working concentrations (100 mg/mL of lithium chloride solution, 1 mg/mLof methylscopolamine bromide solution, and 20 mg/mL of pilocarpine solution) with 0.9% saline. Rats were injected intraperitoneally with lithium chloride (a dose of 127 mg/kg), and 18-20 h later, scopolamine methylbromide (a dose of 1 mg/kg) was injected intraperitoneally. […] Thereafter, an additional dose of 10 mg/kg pilocarpine was injected intraperitoneally every 30 min until the onset of a grade IV or higher status epilepticus (SE)-like seizure without significant intermittent intervals, with a maximum dose of 60 mg/kg.
Model inclusion criterion: experimental animals presenting continuous seizures of grade IV or higher for 1 h was judged as successful modeling.
The rats with successful modeling were randomly divided into three groups, namely a model group, a CTMB group, and a sodium valproate (VPA) group. […]
Referring to the grading scale of Racine scores, the seizure symptoms of each group of rats after the drug intervention were observed, and the seizure grades of each group of rats in the acute phase were recorded. […]

A further data set concerns TNF-α. Put plainly: TNF-α in cerebral cortex of TBI rats. Type of data set: in vivo, SD rats. The note with it: 30 mg/kg ip 2 h after TBI; 24 h after administration; FIG. 3. On the procedure:
The experimental grouping and drug administration plan were as follows. • Sham operation group (Group P): saline was given with the same volume as in the CTMB group; • Model group (T group): a blank emulsion was given with the same volume as in the CTMB group; • Medium dose group (Group M): a dose of 30 mg/kg of CTMB emulsion injection was given.
The experimental grouping and drug administration plan were the same as the test 3. After 2 h of the TBI modeling, different groups of rats were administered intraperitoneally. After 24 h of the administration, the rats were deeply anesthetized, the head was severed and the brain was removed, about 60-120 mg of hemisphere cortex was taken out from the hemisphere on the blood side, 10 times the volume of ice-cold centrifugal buffer used for biochemical assays was added, homogenization was carried out in an ice bath for 10 min, and centrifugation was carried out at 4° C. and 14000 rpm/min for 30 min. The supernatant was extracted, and inflammatory factors IL-1, IL-6, and TNF-α were tested according to the instructions of IL-1, IL-6, and TNF-α assay kits, respectively.

As to `COc1cc(OC)c(OC)cc1C=C1CCC1` [CTMB, 1-(cyclobutylidenemethyl)-2,4,5-trimethoxybenzene], in data set [1] (10 and 20 mg/kg ip, hemorrhagic stroke rats), the “toxic side effects associated with administration” value is “No toxic side effects”. Further, the mNSS score is recorded as 5.97 ± 1.68^####, * in data set [1] (CTMB-H 20 mg/kg ip) and 4.54 ± 1.81^###, **** in data set [1] (CTMB-L 10 mg/kg ip). The Garcia score is given as 10.45 ± 2.49^####, * in data set [1] (CTMB-H 20 mg/kg ip) and 12.45 ± 1.89^####, **** in data set [1] (CTMB-L 10 mg/kg ip). Moreover, in data set [2], the “Seizure grade score (highest, SE model rats)” value is 4.38 ± 0.52. In addition, in the data set on TNF-α, the “content of TNF-α in cerebral cortex tissue” value is reported as “significantly reduced”.
